From the supplement of paper PMC13380429
± gives the standard deviation of the averaged measurements.

Tests used:
Details in all cases: 72 h
[1] = test system: Calu-3; test: relative viability EC50 (midpoint between 100% and the lowest measured viability); higher = less toxic
[2] = test system: U2OS; test: as above
[3] = test system: Vero E6; test: as above
[4] = test system: Caco-2; test: as above
[5] = test system: HepG2; test: as above
[6] = test system: Calu-3; test: drug sensitivity score (DSS) for viability; higher = more toxic; extreme values may be limits of the assay
[7] = test system: U2OS; test: as above
[8] = test system: Vero E6; test: as above
[9] = test system: Caco-2; test: as above
[10] = test system: HepG2; test: as above
[11] = test system: Calu-3; test: cell viability relative to DMSO; higher = less toxic
[12] = test system: U2OS; test: as above
[13] = test system: Vero E6; test: as above
[14] = test system: Caco-2; test: as above
[15] = test system: HepG2; test: as above

Structure (SMILES) | relative viability EC50 [1] | relative viability EC50 [2] | relative viability EC50 [3] | relative viability EC50 [4] | relative viability EC50 [5] | drug sensitivity score [6] | drug sensitivity score [7] | drug sensitivity score [8] | drug sensitivity score [9] | drug sensitivity score [10] | cell viability ([11]; 1 nM) | cell viability ([11]; 10 nM) | cell viability ([11]; 100 nM) | cell viability ([11]; 1000 nM) | cell viability ([11]; 10000 nM) | cell viability ([12]; 1 nM) | cell viability ([12]; 10 nM) | cell viability ([12]; 100 nM) | cell viability ([12]; 1000 nM) | cell viability ([12]; 10000 nM) | cell viability ([13]; 1 nM) | cell viability ([13]; 10 nM) | cell viability ([13]; 100 nM) | cell viability ([13]; 1000 nM) | cell viability ([13]; 10000 nM) | cell viability ([14]; 1 nM) | cell viability ([14]; 10 nM) | cell viability ([14]; 100 nM) | cell viability ([14]; 1000 nM) | cell viability ([14]; 10000 nM) | cell viability ([15]; 1 nM) | cell viability ([15]; 10 nM) | cell viability ([15]; 100 nM) | cell viability ([15]; 1000 nM) | cell viability ([15]; 10000 nM)
CN1CCN(c2ccc(/C=C(\C#N)c3ccccc3Br)cc2)CC1 [DG-172] | > 10 µM | > 10 µM | > 10 µM | > 10 µM | > 10 µM | 0 | 0 | 0 | 0.2 | 0.3 | 114% | 102% | 104% | 100% | 90.6% | 105% | 101% | 106% | 100% | 94.8% | 106% | 108% | 104% | 105% | 91.3% | 102% | 99.5% | 100% | 95.5% | 88.5% | 101% | 99.9% | 104% | 105% | 82.1%
O=C(O)c1cc(O)c2c3nc4ccccc4oc-3cc(=O)c2n1 [pirenoxine] | > 10 µM | > 10 µM | > 10 µM | > 10 µM | > 10 µM | 0 | 0 | 0 | 1.9 | 0 | 108% | 109% | 102% | 106% | 99.4% | 106% | 99.7% | 102% | 103% | 103% | 105% | 107% | 96.6% | 101% | 95% | 99.6% | 103% | 108% | 83.6% | 81.7% | 103% | 113% | 89.5% | 99.6% | 92.6%
O=P(O)(O)C(O)(Cc1cccnc1)P(=O)(O)O [risedronate] | > 10 µM | > 10 µM | > 10 µM | > 10 µM | > 10 µM | 0 | 0 | 0 | 0 | 0 | 97.9% | 98.7% | 103% | 99.2% | 104% | 102% | 96.1% | 98% | 96.2% | 96% | 93.1% | 98.7% | 93% | 94.8% | 104% | 95.6% | 103% | 94.1% | 97.8% | 94.7% | 83.2% | 97.1% | 95.5% | 93.2% | 101%
Brc1ccc(NC2C3CC4CC(C3)CC2C4)cc1 (stereo not given) [bromantan] | > 10 µM | > 10 µM | > 10 µM | > 10 µM | > 10 µM | 0 | 0 | 0 | 0 | 0 | 89.6% | 90.6% | 98.3% | 102% | 87.9% | 102% | 99.6% | 101% | 96.9% | 101% | 101% | 100% | 99.5% | 108% | 98.8% | 104% | 95.9% | 104% | 99.9% | 92.8% | 105% | 100% | 92% | 106% | 94.3%
O=C(O)c1ccc(N2N=C(Cc3ccccc3)/C(=C\c3ccc(-c4ccccc4F)o3)C2=O)cc1 [GS-143] | > 10 µM | > 10 µM | > 10 µM | > 10 µM | > 10 µM | 0 | 0 | 0.3 | 0.2 | 0 | 102% | 99.1% | 101% | 105% | 99.8% | 105% | 106% | 101% | 104% | 98.8% | 106% | 99% | 99.9% | 101% | 82.7% | 103% | 104% | 99.2% | 93.8% | 87.5% | 107% | 110% | 95.4% | 95.8% | 105%
Cc1onc(O)c1C[C@@H](N)C(=O)O (racemic) [AMPA-(RS)] | > 10 µM | > 10 µM | > 10 µM | > 10 µM | > 10 µM | 0 | 0 | 0 | 0 | 0 | 95.7 ± 6.4% | 98.5 ± 1.5% | 95.8 ± 5% | 99.1 ± 3.5% | 106 ± 12% | 97.1 ± 1.8% | 95.6 ± 1.3% | 98.2 ± 2.3% | 98.5 ± 3.6% | 102 ± 2.5% | 99 ± 3.2% | 98.9 ± 1.1% | 93.8 ± 2.1% | 97.2 ± 1.3% | 104 ± 0.78% | 99.7 ± 0.42% | 89.15 ± 0.071% | 98.2 ± 3.9% | 93.2 ± 3.2% | 93 ± 3.8% | 92.3 ± 9.6% | 102 ± 13% | 96.5 ± 5.2% | 101 ± 5.9% | 108 ± 5.2%
C=CCc1ccc(O)c(-c2ccc(O)c(CC=C)c2)c1 [honokiol] | > 10 µM | > 10 µM | > 10 µM | > 10 µM | > 10 µM | 0 | 0 | 0 | 0 | 0.2 | 104% | 111% | 94.4% | 96.6% | 97% | 94.4% | 95.1% | 99.3% | 99.4% | 88.9% | 95.7% | 98.9% | 97.7% | 95.4% | 107% | 93.8% | 94.3% | 102% | 90.1% | 90.9% | 108% | 109% | 109% | 93.2% | 88.4%
O=C(CCCN1CCC(n2c(=O)[nH]c3ccccc32)CC1)c1ccc(F)cc1 [benperidol] | > 10 µM | > 10 µM | > 10 µM | > 10 µM | > 10 µM | 0 | 0 | 0 | 0 | 0 | 101% | 88.1% | 82.4% | 94.4% | 99.1% | 98.2% | 108% | 98.1% | 106% | 96.1% | 105% | 96.2% | 98% | 100% | 95.9% | 102% | 99.2% | 98.1% | 102% | 103% | 103% | 107% | 107% | 107% | 97.5%
CN(C)c1nc(N(C)C)nc(N(C)C)n1 [altretamine] | > 10 µM | > 10 µM | > 10 µM | > 10 µM | > 10 µM | 0 | 0 | 0 | 0 | 0 | 92.7% | 95.6% | 111% | 99.3% | 102% | 100% | 104% | 96.5% | 103% | 97.2% | 104% | 98.3% | 95.5% | 93% | 101% | 97.8% | 100% | 99.8% | 106% | 89.9% | 97.3% | 96.7% | 94.9% | 96% | 93.9%
COc1cc(Cc2cnc(N)nc2N)cc(OC)c1OC [trimethoprim] | > 10 µM | > 10 µM | > 10 µM | > 10 µM | > 10 µM | 0 | 0 | 0 | 0 | 0 | 103% | 89.6% | 107% | 110% | 113% | 92.3% | 98.4% | 96% | 99.6% | 105% | 99.8% | 91.4% | 100% | 94.4% | 96.4% | 114% | 113% | 119% | 103% | 90.1% | 82.4% | 102% | 106% | 89.8% | 97.6%
Cn1c2cc([S+](C)[O-])sc2c2cnn(Cc3cccc(N)c3)c(=O)c21 (stereo not given) [TEPP-46] | > 10 µM | > 10 µM | > 10 µM | > 10 µM | > 10 µM | 0 | 0 | 0 | 0 | 0 | 104% | 97.6% | 96.7% | 94.7% | 94.7% | 98.3% | 97.1% | 97.8% | 100% | 98.7% | 103% | 97.4% | 106% | 96.3% | 91.9% | 98.7% | 98.3% | 92.7% | 98.1% | 89% | 119% | 103% | 111% | 98.5% | 102%
CN(C)C/C=C/C(=O)Nc1ccc(C(=O)Nc2cccc(Nc3ncc(Cl)c(-c4c[nH]c5ccccc45)n3)c2)cc1 [THZ1] | 0.107 µM | 0.11 µM | 0.811 µM | 0.185 µM | 0.0248 µM | 14.4 | 22.6 | 11.5 | 13.5 | 30.2 | 96.1% | 97% | 71.8% | 39.6% | 40.7% | 97% | 102% | 58.2% | 6.2% | 4.9% | 103% | 101% | 99.4% | 44.4% | 11.4% | 95.6% | 104% | 88.9% | 36.9% | 37% | 108% | 87.2% | 10% | 5.4% | 4.8%
Nc1nccc(/C=C/c2ccccc2)n1 [TCN238] | > 10 µM | > 10 µM | > 10 µM | > 10 µM | > 10 µM | 0 | 0 | 0 | 0.4 | 0 | 98.7% | 97.9% | 99.4% | 102% | 103% | 96% | 99.9% | 97.6% | 103% | 97.5% | 104% | 98.6% | 101% | 97.7% | 103% | 89.6% | 98% | 89.2% | 100% | 83.2% | 110% | 92.9% | 112% | 97.3% | 105%
CCOC(=O)Nc1ccc(NCc2ccc(F)cc2)cc1N [Retigabine] | > 10 µM | > 10 µM | > 10 µM | > 10 µM | > 10 µM | 0 | 0 | 0 | 0 | 0 | 91.8% | 88.5% | 98.4% | 103% | 98.3% | 102% | 97.4% | 104% | 97% | 98% | 89.5% | 99.1% | 96.1% | 93.5% | 111% | 100% | 102% | 104% | 96.8% | 106% | 97.6% | 106% | 100% | 102% | 105%
